Test [1] concerns the target Hepatocyte growth factor receptor (Homo sapiens, UniProt P08581). As to the kind of experiment: Selectivity interaction (SelectScreen profiling (Invitrogen)) EUB0000607a MET. Conditions: at 2 µM.
Test [2] concerns the target Macrophage-stimulating protein receptor (Homo sapiens, UniProt Q04912). As to the kind of experiment: Selectivity interaction (SelectScreen profiling (Invitrogen)) EUB0000607a MST1R. The following applies: at 2 µM.
Test [3] deals with T1, Serine/threonine-protein kinase 4 (Homo sapiens) (UniProt Q13043).
T1 sequence (whole entry): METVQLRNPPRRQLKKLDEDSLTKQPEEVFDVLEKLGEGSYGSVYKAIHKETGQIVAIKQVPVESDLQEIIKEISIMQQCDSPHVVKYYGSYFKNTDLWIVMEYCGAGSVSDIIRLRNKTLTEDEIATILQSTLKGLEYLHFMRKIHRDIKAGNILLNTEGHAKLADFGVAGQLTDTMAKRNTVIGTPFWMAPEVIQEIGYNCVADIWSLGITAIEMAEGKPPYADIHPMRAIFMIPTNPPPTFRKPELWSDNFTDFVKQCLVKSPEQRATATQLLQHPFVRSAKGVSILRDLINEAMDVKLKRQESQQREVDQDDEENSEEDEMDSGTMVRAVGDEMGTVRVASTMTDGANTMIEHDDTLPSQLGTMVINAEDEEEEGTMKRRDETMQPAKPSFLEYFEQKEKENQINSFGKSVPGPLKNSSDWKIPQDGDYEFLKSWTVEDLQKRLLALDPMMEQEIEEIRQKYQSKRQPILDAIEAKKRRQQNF
As to the kind of experiment: Selectivity interaction (SelectScreen profiling (Invitrogen)) EUB0000607a STK4. The following applies: at 2 µM.

Test [4] deals with Serine/threonine-protein kinase 26 (Homo sapiens, UniProt Q9P289). Description: Selectivity interaction (ActivX KiNativ screen (kinase selectivity in THP-1 cell lysates)) EUB0000639a STK26. In kind it is subcellular. Conditions: lysate, at 5 µM.
Sequence of Serine/threonine-protein kinase 26 (Q9P289 2-416 limits assumed): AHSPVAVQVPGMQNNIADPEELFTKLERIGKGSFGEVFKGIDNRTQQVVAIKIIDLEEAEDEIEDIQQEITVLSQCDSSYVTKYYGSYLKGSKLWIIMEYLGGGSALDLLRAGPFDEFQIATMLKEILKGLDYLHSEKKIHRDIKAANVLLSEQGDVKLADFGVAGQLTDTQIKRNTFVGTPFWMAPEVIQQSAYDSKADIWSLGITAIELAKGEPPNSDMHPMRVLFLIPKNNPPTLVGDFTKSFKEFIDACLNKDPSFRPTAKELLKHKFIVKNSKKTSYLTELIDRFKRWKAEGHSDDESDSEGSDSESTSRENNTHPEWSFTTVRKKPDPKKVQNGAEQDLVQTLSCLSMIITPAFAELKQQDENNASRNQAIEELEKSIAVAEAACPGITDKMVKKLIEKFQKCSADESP
For test [5], the target named is Serine/threonine-protein kinase MARK2 (Homo sapiens) (UniProt Q7KZI7). As to the kind of experiment: Selectivity interaction (ActivX KiNativ screen (kinase selectivity in THP-1 cell lysates)) EUB0000639a MARK2. It counts as subcellular. The following applies: lysate, at 0.2 µM.
Sequence of Serine/threonine-protein kinase MARK2 (Homo sapiens) (Q7KZI7 whole entry): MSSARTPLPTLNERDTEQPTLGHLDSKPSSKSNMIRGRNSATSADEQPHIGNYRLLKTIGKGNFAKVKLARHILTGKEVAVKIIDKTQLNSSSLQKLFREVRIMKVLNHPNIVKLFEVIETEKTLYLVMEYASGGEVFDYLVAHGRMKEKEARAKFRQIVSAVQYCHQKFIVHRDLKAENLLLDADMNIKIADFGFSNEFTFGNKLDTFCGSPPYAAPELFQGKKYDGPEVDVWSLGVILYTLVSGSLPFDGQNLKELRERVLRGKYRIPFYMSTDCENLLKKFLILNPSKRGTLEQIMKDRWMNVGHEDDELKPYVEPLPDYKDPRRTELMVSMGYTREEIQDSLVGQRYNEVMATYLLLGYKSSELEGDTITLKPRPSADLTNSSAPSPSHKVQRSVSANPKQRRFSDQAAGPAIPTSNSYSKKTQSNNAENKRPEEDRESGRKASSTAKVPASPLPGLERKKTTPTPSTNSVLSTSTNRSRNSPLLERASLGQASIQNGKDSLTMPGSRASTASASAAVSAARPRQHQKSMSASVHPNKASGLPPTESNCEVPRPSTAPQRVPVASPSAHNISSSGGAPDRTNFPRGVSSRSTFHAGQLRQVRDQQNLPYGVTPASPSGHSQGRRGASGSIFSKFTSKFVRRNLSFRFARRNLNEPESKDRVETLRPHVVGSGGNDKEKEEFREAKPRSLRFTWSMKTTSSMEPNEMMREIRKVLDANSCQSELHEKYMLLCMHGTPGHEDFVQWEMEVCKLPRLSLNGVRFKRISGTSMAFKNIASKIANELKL
The target of test [6] is T2, Serine/threonine-protein kinase Nek9 (Homo sapiens) (UniProt Q8TD19).
T2 sequence (whole entry): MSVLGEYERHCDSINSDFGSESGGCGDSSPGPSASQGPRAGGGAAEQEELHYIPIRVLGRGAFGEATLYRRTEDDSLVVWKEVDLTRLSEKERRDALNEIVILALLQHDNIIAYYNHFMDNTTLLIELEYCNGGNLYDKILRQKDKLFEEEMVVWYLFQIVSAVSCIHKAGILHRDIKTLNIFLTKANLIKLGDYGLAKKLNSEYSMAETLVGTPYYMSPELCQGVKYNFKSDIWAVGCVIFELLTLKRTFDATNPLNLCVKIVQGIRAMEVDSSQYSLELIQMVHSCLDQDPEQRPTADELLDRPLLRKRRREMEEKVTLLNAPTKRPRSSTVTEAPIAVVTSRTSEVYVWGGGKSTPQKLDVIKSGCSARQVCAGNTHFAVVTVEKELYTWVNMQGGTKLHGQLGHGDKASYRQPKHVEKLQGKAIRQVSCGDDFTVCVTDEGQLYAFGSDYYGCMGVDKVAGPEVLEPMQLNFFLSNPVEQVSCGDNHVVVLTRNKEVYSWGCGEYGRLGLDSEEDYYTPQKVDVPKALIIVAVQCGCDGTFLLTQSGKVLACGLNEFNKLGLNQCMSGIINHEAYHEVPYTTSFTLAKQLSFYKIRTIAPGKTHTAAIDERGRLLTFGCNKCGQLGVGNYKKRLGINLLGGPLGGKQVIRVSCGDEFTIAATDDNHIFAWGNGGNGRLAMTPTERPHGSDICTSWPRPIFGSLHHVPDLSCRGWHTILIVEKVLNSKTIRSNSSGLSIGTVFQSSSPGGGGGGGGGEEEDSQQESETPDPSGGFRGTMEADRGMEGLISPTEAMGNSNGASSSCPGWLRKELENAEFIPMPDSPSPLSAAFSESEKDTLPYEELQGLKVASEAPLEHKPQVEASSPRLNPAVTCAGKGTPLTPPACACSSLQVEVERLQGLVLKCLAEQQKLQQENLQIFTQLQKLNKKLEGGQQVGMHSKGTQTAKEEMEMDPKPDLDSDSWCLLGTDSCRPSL
Description: Selectivity interaction (ActivX KiNativ screen (kinase selectivity in THP-1 cell lysates)) EUB0000639a NEK9. It counts as subcellular. Conditions: lysate, at 0.01 µM.

Test [7] addresses Dual specificity protein kinase CLK2 (Homo sapiens, UniProt P49760). As to the kind of experiment: Selectivity interaction (ProQinase) EUB0000171b CLK2.
In test [8] the target is T3, Tyrosine-protein kinase ZAP-70 (Homo sapiens) (UniProt P43403).
T3 sequence (whole entry): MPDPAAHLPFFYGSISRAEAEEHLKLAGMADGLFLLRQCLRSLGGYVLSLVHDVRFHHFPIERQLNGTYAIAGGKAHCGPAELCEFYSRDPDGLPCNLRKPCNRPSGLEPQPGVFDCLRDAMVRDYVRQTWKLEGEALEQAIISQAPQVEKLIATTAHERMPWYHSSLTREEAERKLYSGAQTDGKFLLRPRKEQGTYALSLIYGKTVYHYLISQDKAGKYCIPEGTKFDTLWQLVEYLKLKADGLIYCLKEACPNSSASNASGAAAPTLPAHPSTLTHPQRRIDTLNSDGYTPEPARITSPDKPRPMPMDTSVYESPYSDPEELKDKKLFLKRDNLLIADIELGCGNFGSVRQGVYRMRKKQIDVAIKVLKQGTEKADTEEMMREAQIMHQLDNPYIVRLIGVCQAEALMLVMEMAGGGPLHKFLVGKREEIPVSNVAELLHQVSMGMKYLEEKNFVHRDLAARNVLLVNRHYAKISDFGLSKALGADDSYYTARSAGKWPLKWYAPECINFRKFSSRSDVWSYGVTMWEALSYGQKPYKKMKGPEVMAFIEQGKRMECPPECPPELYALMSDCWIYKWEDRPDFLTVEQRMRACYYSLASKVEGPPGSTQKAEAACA
Description: Selectivity interaction (Ambit KINOMEscan and KiNATiv profiling in Jurkat cells) EUB0000090b ZAP70. In kind it is cell-based. The following applies: at 1 µM.

The target in test [9] is Serine/threonine-protein kinase PAK 3 (Homo sapiens) (UniProt O75914). As to the kind of experiment: Selectivity interaction (Upstate Kinase Profiler service (Millipore)) EUB0000056c PAK3. Conditions: at 1 µM.
In test [10] the target is Cyclin-dependent kinase 18 (Homo sapiens) (UniProt Q07002). Description: Selectivity interaction (KinomeScan (DiscoverX)) EUB0000618a CDK18. The following applies: at 10 µM.
In test [11] the target is Tyrosine-protein kinase Srms (Homo sapiens) (UniProt Q9H3Y6). As to the kind of experiment: Selectivity interaction (KinomeScan (DiscoverX)) EUB0000092b SRMS. Conditions: at 10 µM.
Sequence of Tyrosine-protein kinase Srms (Homo sapiens) (Q9H3Y6 whole entry): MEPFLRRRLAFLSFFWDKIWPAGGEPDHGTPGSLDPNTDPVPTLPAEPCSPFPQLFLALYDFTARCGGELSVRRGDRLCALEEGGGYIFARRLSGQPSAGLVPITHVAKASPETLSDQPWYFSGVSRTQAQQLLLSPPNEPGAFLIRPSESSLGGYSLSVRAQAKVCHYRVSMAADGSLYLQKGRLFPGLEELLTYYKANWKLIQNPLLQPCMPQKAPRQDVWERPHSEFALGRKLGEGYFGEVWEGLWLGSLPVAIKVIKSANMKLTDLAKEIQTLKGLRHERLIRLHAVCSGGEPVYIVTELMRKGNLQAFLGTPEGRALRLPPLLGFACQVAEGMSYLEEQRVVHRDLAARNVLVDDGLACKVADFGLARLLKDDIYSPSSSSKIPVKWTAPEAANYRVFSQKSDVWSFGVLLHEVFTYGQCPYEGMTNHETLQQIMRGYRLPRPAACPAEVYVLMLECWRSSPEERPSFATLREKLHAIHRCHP
Test [12] deals with Dual specificity mitogen-activated protein kinase kinase 1 (Homo sapiens, UniProt Q02750). As to the kind of experiment: Selectivity interaction (Kinase panel (KiNativ target engagement assay in Jurkat cells)) EUB0001635a MAP2K1. In kind it is cell-based. The following applies: Selectivity number of off-targets 0.0, Selectivity number of targets 233.0, Source Knowledge https://www.sciencedirect.com/science/article/pii/S2451945619300674?via%3Dihub, at 1 µM.

Sequence of Dual specificity protein kinase CLK2 (P49760 whole entry, looked up): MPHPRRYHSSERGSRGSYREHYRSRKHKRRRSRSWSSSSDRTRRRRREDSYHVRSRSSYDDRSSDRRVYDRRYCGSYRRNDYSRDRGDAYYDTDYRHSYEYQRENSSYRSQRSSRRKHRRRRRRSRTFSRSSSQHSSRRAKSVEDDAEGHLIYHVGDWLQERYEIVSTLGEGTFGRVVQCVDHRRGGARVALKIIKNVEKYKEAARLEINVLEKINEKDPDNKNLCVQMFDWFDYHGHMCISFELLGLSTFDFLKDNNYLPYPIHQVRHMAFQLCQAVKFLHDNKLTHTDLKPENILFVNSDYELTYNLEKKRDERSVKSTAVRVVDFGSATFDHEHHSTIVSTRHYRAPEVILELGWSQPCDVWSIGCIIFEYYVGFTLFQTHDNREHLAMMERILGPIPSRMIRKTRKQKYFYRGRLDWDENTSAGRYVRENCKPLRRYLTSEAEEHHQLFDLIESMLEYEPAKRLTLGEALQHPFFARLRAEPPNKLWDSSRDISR
Sequence of Macrophage-stimulating protein receptor (Q04912 25-304 limits assumed): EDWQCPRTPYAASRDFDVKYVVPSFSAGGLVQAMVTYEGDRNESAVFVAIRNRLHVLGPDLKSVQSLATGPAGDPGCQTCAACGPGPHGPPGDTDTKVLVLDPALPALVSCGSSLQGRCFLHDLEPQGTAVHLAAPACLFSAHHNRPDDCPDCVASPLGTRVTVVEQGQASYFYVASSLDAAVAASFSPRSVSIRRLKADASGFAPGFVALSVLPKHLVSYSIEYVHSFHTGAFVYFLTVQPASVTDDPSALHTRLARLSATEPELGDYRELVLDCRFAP
Sequence of Macrophage-stimulating protein receptor (Q04912 310-1400 limits assumed): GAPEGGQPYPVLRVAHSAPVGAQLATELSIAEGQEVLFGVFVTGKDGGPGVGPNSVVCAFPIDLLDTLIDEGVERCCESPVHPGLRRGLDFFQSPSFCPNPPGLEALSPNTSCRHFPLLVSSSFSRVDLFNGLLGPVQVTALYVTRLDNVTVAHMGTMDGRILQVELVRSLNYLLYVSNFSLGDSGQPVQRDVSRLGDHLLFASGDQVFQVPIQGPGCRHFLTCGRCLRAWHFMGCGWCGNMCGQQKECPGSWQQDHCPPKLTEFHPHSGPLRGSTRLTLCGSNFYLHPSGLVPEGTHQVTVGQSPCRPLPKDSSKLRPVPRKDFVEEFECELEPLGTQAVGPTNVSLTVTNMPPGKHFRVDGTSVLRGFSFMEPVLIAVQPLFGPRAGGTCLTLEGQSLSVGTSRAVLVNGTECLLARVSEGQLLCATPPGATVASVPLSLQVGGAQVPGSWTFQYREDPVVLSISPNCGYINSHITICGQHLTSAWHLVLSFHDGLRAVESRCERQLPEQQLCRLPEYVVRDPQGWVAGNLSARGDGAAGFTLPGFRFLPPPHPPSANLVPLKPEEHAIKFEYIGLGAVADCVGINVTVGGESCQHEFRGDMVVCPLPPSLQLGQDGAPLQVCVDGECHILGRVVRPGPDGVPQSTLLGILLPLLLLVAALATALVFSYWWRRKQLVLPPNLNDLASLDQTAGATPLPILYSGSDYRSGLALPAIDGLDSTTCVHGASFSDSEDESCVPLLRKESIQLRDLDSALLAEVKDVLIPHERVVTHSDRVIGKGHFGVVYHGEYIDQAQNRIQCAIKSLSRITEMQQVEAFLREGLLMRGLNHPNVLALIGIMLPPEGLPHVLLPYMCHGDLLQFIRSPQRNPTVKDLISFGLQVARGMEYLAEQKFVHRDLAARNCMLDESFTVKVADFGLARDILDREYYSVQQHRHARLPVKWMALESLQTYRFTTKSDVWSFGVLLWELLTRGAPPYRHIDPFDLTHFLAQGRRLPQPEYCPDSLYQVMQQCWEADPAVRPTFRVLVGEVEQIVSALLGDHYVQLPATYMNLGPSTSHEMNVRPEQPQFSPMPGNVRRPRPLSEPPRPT
Sequence of Hepatocyte growth factor receptor (P08581 whole entry): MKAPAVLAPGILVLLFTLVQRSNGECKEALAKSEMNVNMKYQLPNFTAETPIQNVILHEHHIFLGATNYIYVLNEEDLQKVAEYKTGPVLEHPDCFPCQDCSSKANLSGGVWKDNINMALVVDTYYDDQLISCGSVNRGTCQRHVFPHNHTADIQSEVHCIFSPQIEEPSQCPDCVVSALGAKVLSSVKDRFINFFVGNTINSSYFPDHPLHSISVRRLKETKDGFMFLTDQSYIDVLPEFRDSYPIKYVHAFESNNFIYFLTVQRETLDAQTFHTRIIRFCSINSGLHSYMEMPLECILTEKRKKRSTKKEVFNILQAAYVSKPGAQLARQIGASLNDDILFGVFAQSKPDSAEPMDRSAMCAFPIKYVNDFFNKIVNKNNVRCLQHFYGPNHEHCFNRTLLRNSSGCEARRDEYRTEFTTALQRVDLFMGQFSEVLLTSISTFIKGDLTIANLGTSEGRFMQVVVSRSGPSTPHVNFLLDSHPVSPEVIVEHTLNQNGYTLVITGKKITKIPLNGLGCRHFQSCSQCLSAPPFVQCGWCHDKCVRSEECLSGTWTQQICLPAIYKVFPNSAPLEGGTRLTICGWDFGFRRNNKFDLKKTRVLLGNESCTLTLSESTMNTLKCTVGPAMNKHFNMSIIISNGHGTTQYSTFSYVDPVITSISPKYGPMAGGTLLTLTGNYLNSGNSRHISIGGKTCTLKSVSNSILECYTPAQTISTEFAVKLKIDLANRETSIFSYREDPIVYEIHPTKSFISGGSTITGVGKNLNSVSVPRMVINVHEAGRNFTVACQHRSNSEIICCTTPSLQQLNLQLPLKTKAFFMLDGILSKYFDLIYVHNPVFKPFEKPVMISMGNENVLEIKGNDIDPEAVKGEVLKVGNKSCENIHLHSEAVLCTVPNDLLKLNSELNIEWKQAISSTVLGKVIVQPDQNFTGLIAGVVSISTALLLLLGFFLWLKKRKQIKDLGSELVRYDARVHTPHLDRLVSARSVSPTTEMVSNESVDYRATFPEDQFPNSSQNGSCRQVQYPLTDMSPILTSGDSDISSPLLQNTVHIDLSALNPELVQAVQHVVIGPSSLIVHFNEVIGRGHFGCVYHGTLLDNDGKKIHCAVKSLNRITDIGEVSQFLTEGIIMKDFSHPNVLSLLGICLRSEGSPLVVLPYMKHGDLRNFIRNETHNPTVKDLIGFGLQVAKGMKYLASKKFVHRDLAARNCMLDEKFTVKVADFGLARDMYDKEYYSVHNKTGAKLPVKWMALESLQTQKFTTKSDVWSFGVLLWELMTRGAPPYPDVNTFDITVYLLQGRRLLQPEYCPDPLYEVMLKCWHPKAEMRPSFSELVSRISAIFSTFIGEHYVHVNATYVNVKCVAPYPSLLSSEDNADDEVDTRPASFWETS

`CNC(=O)Nc1ccc(-c2nc(N3CC4CCC(C3)O4)c3cnn(C4CCC5(CC4)OCCO5)c3n2)cc1`: the % of inhibition in [1] is 2%; in test [2], -1%; in test [3] it was 12%.
On to `CC[C@@H]1[C@H](F)C(=O)N[C@@H]1COc1nccc2cc(C(N)=O)c(OC)cc12` [ZIMLOVISERTIB], for which the % of inhibition in test [4] stood at 21.8%; in [5], 4.2%; in [6] it was 1.1%.
Consider `C=CC(=O)Nc1cccc(C(=O)Nc2ccc(Nc3cc(-c4[nH]c(SC)nc4C)ccn3)cc2)c1`, for which the % of control in test [7] (at 1 µM) came out at 81%; in test [7] (at 5 µM), 51%.
`CN(C)C/C=C/C(=O)Nc1ccc(C(=O)N2CCCC(Nc3ncc(Cl)c(-c4c[nH]c5ccccc45)n3)C2)cc1` (stereo not drawn): the % of control in test [8] came to 86%.
Consider `Cc1ccc(-c2ccc3c(ccc4sc5c(c43)NC[C@@H](C)NC5=O)n2)cn1`, for which the % of inhibition in test [9] was 37%.
As to `O[C@H]1CC[C@H](Nc2ncc3nc(Nc4c(F)cc(F)cc4F)n([C@H]4CCOC4)c3n2)CC1`, the % of control in [10] stood at 100%.
As for `CCC(=O)N1CCN(c2ccc(-n3c(=O)ccc4cnc5ccc(-c6cnc7ccccc7c6)cc5c43)cc2C(F)(F)F)CC1`, in [11], the % of control is 92%.
For the compound `C=CC(=O)Nc1ccc(C(=O)Nc2[nH]nc3c2CN(C(=O)N[C@H](CN(C)C)c2ccccc2)C3(C)C)cc1`, the % of engagement in test [12] is -2.4%.

Source of the values: ChEMBL document CHEMBL5465560, “Selectivity Literature for EUbOPEN Chemogenomic Library” (2024).
